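96-well plates; 48 h exposure; 5 concentrations. Endpoints by linear interpolation between flanking doses. Not reached: highest tested concentration assigned. TGI: total growth inhibition.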
Tests used:
Test in all cases: NCI tumour cell line growth inhibition, 48 h
[1] = tested on: 786-0 renal
[2] = tested on: A498 renal
[3] = tested on: A549 NSCLC
[4] = tested on: ACHN renal
[5] = tested on: CAKI-1 renal
[6] = tested on: CCRF-CEM leukemia
[7] = tested on: COLO 205 colon
[8] = tested on: DLD-1 colon
[9] = tested on: DMS 273 small cell lung
[10] = tested on: EKVX NSCLC
[11] = tested on: HCC-2998 colon
[12] = tested on: HCT-116 colon
[13] = tested on: HCT-15 colon
[14] = tested on: HL-60(TB) leukemia
[15] = tested on: HOP-18 NSCLC
[16] = tested on: HOP-92 NSCLC
[17] = tested on: HT29 colon
[18] = tested on: IGROV1 ovarian
[19] = tested on: K-562 leukemia
[20] = tested on: KM12 colon
[21] = tested on: KM20L2 colon
[22] = tested on: LOX IMVI melanoma
[23] = tested on: LXFL 529 NSCLC
[24] = tested on: M14 melanoma
[25] = tested on: MALME-3M melanoma
[26] = tested on: MOLT-4 leukemia
[27] = tested on: NCI-H226 lung
[28] = tested on: NCI-H23 lung
[29] = tested on: NCI-H460 lung
[30] = tested on: NCI-H522 lung
[31] = tested on: OVCAR-3 ovarian
[32] = tested on: OVCAR-4 ovarian
[33] = tested on: OVCAR-5 ovarian
[34] = tested on: OVCAR-8 ovarian
[35] = tested on: RPMI-8226 leukemia
[36] = tested on: RXF 393 renal
[37] = tested on: RXF-631 renal
[38] = tested on: SF-268 CNS
[39] = tested on: SF-539 CNS
[40] = tested on: SK-MEL-2 melanoma
[41] = tested on: SK-MEL-28 melanoma
[42] = tested on: SK-MEL-5 melanoma
[43] = tested on: SN12C renal
[44] = tested on: SNB-19 CNS
[45] = tested on: SNB-75 CNS
[46] = tested on: SNB-78 CNS
[47] = tested on: SW-620 colon
[48] = tested on: TK-10 renal
[49] = tested on: U251 CNS
[50] = tested on: UACC-257 melanoma
[51] = tested on: UACC-62 melanoma
[52] = tested on: UO-31 renal
[53] = tested on: DMS 114 small cell lung
[54] = tested on: HOP-62 NSCLC
[55] = tested on: M19-MEL melanoma
[56] = tested on: SF-295 CNS
[57] = tested on: SK-OV-3 ovarian
[58] = tested on: SR leukemia

COc1cc([C@@H]2c3cc4c(cc3[C@@H](NC(=O)c3cccc(C#N)c3)C3COC(=O)[C@@H]32)OCO4)cc(OC)c1O (stereo partly specified)
TGI [1]: > 100 µM | TGI [2]: 4.98 µM | TGI [3]: 2510 nM | TGI [4]: 1980 nM | TGI [5]: 16.3 µM | TGI [6]: > 100 µM | TGI [7]: > 100 µM | TGI [8]: 16.8 µM | TGI [9]: 13.8 µM | TGI [10]: 7.49 µM | TGI [11]: 6.34 µM | TGI [12]: 12.7 µM | TGI [13]: 24.5 µM | TGI [14]: 12.3 µM | TGI [15]: > 100 µM | TGI [16]: 9.89 µM | TGI [17]: 11.5 µM | TGI [18]: 6.54 µM | TGI [19]: > 100 µM | TGI [20]: 5.21 µM | TGI [21]: 7.53 µM | TGI [22]: 10.5 µM | TGI [23]: > 100 µM | TGI [24]: > 100 µM | TGI [25]: 5.18 µM | TGI [26]: 33 µM | TGI [27]: 670 nM | TGI [28]: 811 nM | TGI [29]: 2530 nM | TGI [30]: 3.16 µM | TGI [31]: 8.74 µM | TGI [32]: > 100 µM | TGI [33]: 25.5 µM | TGI [34]: 14.6 µM | TGI [35]: 29.4 µM | TGI [36]: 45.5 µM | TGI [37]: 14.6 µM | TGI [38]: > 100 µM | TGI [39]: 1560 nM | TGI [40]: 8.83 µM | TGI [41]: > 100 µM | TGI [42]: 13.6 µM | TGI [43]: 1810 nM | TGI [44]: 8.62 µM | TGI [45]: 4.85 µM | TGI [46]: > 100 µM | TGI [47]: 17.8 µM | TGI [48]: 7.86 µM | TGI [49]: 1810 nM | TGI [50]: > 100 µM | TGI [51]: 2950 nM | TGI [52]: 19.2 µM

CC1(C)CCCC2(C)[C@@H]1CC[C@@]13CC(=O)[C@@](C)(CC[C@@H]21)C3 (stereo partly specified)
TGI [1]: > 100 µM | TGI [3]: > 100000 nM | TGI [4]: > 100000 nM | TGI [5]: > 100 µM | TGI [6]: > 100 µM | TGI [7]: > 100 µM | TGI [8]: > 100 µM | TGI [53]: > 100 µM | TGI [9]: > 100 µM | TGI [11]: > 100 µM | TGI [12]: > 100 µM | TGI [13]: > 100 µM | TGI [14]: > 100 µM | TGI [54]: > 100 µM | TGI [16]: > 100 µM | TGI [17]: 76.3 µM | TGI [18]: > 100 µM | TGI [19]: > 100 µM | TGI [20]: > 100 µM | TGI [21]: > 100 µM | TGI [22]: > 100 µM | TGI [23]: > 100 µM | TGI [24]: > 100 µM | TGI [55]: 89.6 µM | TGI [25]: > 100 µM | TGI [26]: > 100 µM | TGI [27]: > 100000 nM | TGI [28]: > 100000 nM | TGI [29]: > 100000 nM | TGI [30]: 82.5 µM | TGI [31]: > 100 µM | TGI [32]: > 100 µM | TGI [33]: > 100 µM | TGI [34]: > 100 µM | TGI [35]: > 100 µM | TGI [36]: 62.8 µM | TGI [37]: > 100 µM | TGI [38]: > 100 µM | TGI [56]: > 100 µM | TGI [39]: > 100000 nM | TGI [41]: > 100 µM | TGI [42]: > 100 µM | TGI [57]: > 100 µM | TGI [43]: > 100000 nM | TGI [44]: > 100 µM | TGI [45]: > 100 µM | TGI [46]: > 100 µM | TGI [58]: > 100 µM | TGI [47]: > 100 µM | TGI [48]: > 100 µM | TGI [49]: > 100000 nM | TGI [50]: 97.3 µM | TGI [51]: > 100000 nM | TGI [52]: > 100 µM

Reference: PubChem BioAssay (NCI)
